Experimental data from ChEMBL document CHEMBL1128911 (Bioorg Med Chem Lett, 1996).

What was measured:
[1] = molecular target: T1, Melatonin receptor (Homo sapiens) (UniProt P48039+P49286); test: Binding affinity against ovine pars tuberalis melatonin receptor using 2-[125I]- melatonin radioligand binding assay; format: protein assay; conditions: Ovis aries; target entry is the homologue from another species
Melatonin receptor = format: protein assay, Ovis aries
[2] = molecular target: T1, Melatonin receptor (Homo sapiens); test: Compound was evaluated for agonistic activity against cAMP production stimulated by forskolin; Potential stimulation; format: functional; conditions: Ovis aries; filed as agonist

Structure (SMILES)	KH [1] [pM]	KL [1] [nM]	Ki (Melatonin receptor) [nM]	Activity [2]
CC(=O)NCCc1cccc2ccc3c(c12)CC(C)O3 (stereo not given)	0.0069	1.2		
CC(=O)NCCc1cccc2ccc3c(c12)C(=O)CO3			13.9	
CC(=O)NCCc1cccc2ccc3c(c12)C=CCO3			0.137	

Other lines, results leading:

KH [1] [pM]	KL [1] [nM]	Ki (Melatonin receptor) [nM]	Activity [2]	Structure (SMILES)
		130		CC(=O)NCCc1cccc2ccc3c(c12)C(O)CO3 (stereo not given)
		6.17	Agonist	CC(=O)NCCC1CCCc2ccc3c(c21)CCCO3 (stereo not given)
		0.216		CC(=O)NCCc1cccc2ccc3c(c12)CCCO3
		62.2	Agonist	CC(=O)NCCC1CCCc2cc3c(cc21)OCCO3 (stereo not given)
